Legend:
[1] = system: TSL2 (RNA, hairpin) AUUCCUUAAAUUAAGGAGU; experiment: TO-PRO-1 fluorescence displacement; details: Na+ (185 mM NaCl, 8 mM Na2HPO4); pH 7, 0.1 mM EDTA, 40 μg/mL BSA; 0.5 μM RNA; TO-PRO-1 (1 μM) displaced
[2] = system: TSL2 (RNA, hairpin) AUUCCUUAAAUUAAGGAGU; experiment: RiboGreen fluorescence displacement; details: Na+ (185 mM NaCl, 8 mM Na2HPO4); RiboGreen (300 nM) displaced
[3] = system: TSL2 (RNA, hairpin) AUUCCUUAAAUUAAGGAGU; experiment: NMR (TOCSY) chemical-shift perturbation; details: 40–50 μM RNA, 20 equivalents PK4C9; shifts at U2 and U19

| SMILES | EC50 [1] [µM] | binding [2] | binding [3] |
| --- | --- | --- | --- |
| O=C(c1cnc(C(=O)c2c[nH]c3cc(O)ccc23)[nH]1)c1c[nH]c2ccccc12 | 16 | yes | yes |
| N=C(N)c1ccc(Nc2ccc(-c3cc4ccc(C(=N)N)cc4[nH]3)cc2)cc1 | 4.5 | – | – |
| O=C(c1cnc(C(=O)c2c[nH]c3ccccc23)[nH]1)c1c[nH]c2ccccc12 | 85.9 | – | – |

From PMC5966403 (2018)
